From patent publication US20260306463A1, “SIK INHIBITORS TO TREAT CHRONIC KIDNEY DISEASE” (The General Hospital Corporation, priority 2023, published 2026)

Assays:
[1] = tested on: mice with adenine diet-induced chronic kidney disease; assay: 8 week adenine diet CKD study, SK-124 versus once daily PTH injections; type: in vivo, mouse (female CD1); conditions: 8 weeks
Procedure: FIGS. 4A-4D. […] (A) Study design: Female CD1 mice (n=8/group) were treated with control or 0.2% adenine diet starting at […] of age along with vehicle, PTH (80 mcg/kg/d, IP injections) or SK-124 (40 mg/kg) treatment by oral gavage once daily. Mice were treated for 8 weeks. (B, C) After 8 weeks of treatment, the indicated serum analyte was measured. (D) Whole kidney RNA from the indicated groups was analyzed by RT-qPCR for the indicated fibrosis marker gene.
7-week-old female CD1 mice were obtained from Charles River Laboratories (Wilmington, MA) and were fed on 0.2% adenine containing diet (TD.130900; 0.2% Adenine, 0.9% Phosphate, 0.5% Calcium; Envigo) or control diet (TD. 96348) for 6 or 8 weeks to induce chronic kidney disease (CKD). Mice were oral gavaged with 40 mg/kg SK-124, or intraperitonially injected with 80 μg/kg PTH, or treated with vehicle 5 days a week for the duration of the special diet.
For studies with Ubiquitin-Cre^ERt2; Sik2^ff; Sik3^ff mice (JAX #007001 for Ubiquitin-Cre^ERt2: RRID:MGL:5905012 for Sik2 foxed mice; and Sik3^tmla(EUCOMM)Hmgu mice (RRID:MGI:5085429) bred to PGK1 FLPo mice (JAX #011065) in order to generate Sik3 foxed mice), tamoxifen was injected (1 mg, IP, Q48 hours, 3 injections total) in all animals including Cre-negative control littermates housed in cages with Pure-o′Cel bedding at 5 weeks of age. Mice were then fed on 0.2% adenine diet from 6 weeks to 9 weeks of age. Mice were fasted for 6 hours and treated with SK-124 and PTH 4 hours and 2 hours before the sacrifice. Blood and spot urine samples were collected by cheek pouch bleeding and by pipetting urine collected on hydrophobic sand (Labsand; Braintree, MA). Kidneys were immediately snap-frozen in liquid nitrogen for TRIzol (Life Technologies)-Chloroform (Fischer Scientific) based RNA isolation or protein isolation, or fixed in 10% formalin at 4C for 24 hrs for histology. All serum and urine measurements were performed using commercial bioassay detection reagents listed in Table 1, following the manufacturers' instructions. Urine protein levels were measured by Bradford assay and normalized to urine creatinine.
cDNA was prepared using Primescript RT kit (Takara Inc), with 750 ng RNA per reaction. RT-qPCR was performed by using PerfeCa® SYBR® Green FAstMix® ROX (Quanta bio) in the StepOnePlus™ Real-time PCR System (Applied Biosystems). Hmbs was used as a control housekeeping gene for mouse samples, and B-Actin was used for organoids, relative expression was calculated (2^-deltaCT method) and compared to the mean of control group if necessary. Primers used for RT-qPCR are listed in Table 2 (mouse primers) and Table 3 (human primers).

human kidney organoids = assay: cisplatin injury of human kidney organoids: immunostaining, organoid size; type: cell-based; conditions: intermittent cisplatin, 5 treatments
Procedure: FIG. 7. SK-124 preserves human kidney organoid integrity in cisplatin injury model. Human kidney organoids derived from H9 embryonic stem cells were treated with intermittent cisplatin (5 separate treatments) based on published protocols along with the indicated agent. Organoids were cryo-sectioned and immuno-stained with the indicated markers. The top panels show low power images and the bottom panels focus on regions of proximal tubule cells. The graph measures the mean diameter of organoids in the control (no cisplatin), cisplatin+DMSO, and cisplatin+SK-124 treatment groups.
BJFF human induced pluripotent stem cells (hPSCs) were maintained on Geltrexcoated (Thermo Fisher Scientific) plates using StemFit Basic04 Complete (Ajinomoto Co. Inc.) as previously reported(25). The cells were passaged weekly using Accutase (STEMCELL Technologies) for dissociation and Y27632 (Tocris) for adhesion. Directed differentiation of hPSCs into kidney organoids has been published elsewhere (29). Briefly, hPSCs were differentiated into metanephric mesenchyme cells on day 8 by a three-step directed differentiation protocol. Metanephric mesenchyme was transferred into suspension culture in 96-well ultralow adhesion plates (Coming) and further differentiated into kidney organoids, as previously reported(25). Quality control measures of SIX2 immunostaining on day 8 of differentiation and CDH1, LTL, PODXL, CD146, MEIS1/2/3, and SYTOX-blue staining on day 21 were performed on all batches of kidney organoids to limit batch-to-batch heterogeneity. Kidney organoids were maintained in 200 μl of basal media consisting of Advanced RPMI (Thermo Fisher Scientific) and GlutaMAX (Thermo Fisher Scientific) in 96-well plates, as previously reported. Media changes were conducted three times weekly with removal of 90 [l and addition of 100 μl of fresh basal media.
For cisplatin induced injury, day 49 organoids were treated with 5 μM cisplatin in basal media after full media change. After 24 hours, full media exchanges were performed. This 24-hour treatment was performed twice a week, on day 52-53, day 56-57, day 59-60, and day 63-64 as well, for a total of five cisplatin treatments. Samples were obtained for RT-qPCR and immunostaining immediately following each 24-hour treatment with cisplatin, and from corresponding controls.
Following the treatment, the organoids were collected and immediately fixed in 4% PFA in PBS for 1 hour at room temperature, submerged in 30% sucrose overnight at 4° C., then embedded in O.C.T. Compound (4585. Fisher HealthCare). Subsequently, […] frozen sections were prepared via cryo-sectioning by a cryostat. After 1 hr blocking at room temperature, the sections were treated overnight at 4° C. with primary antibodies in antibody dilution buffer (ADB) with biotinylated LTL (1:200, B-1325, Vector), rat anti-CDH1 (1:500, ab11512, Abcam), goat anti-PODXL (1:500, AF1658, R&D Systems), as well as the antibody of interest, either mouse anti-p21 (1:200, NBP2-43697, Novus Biologicals), or rabbit anti-γH2AX (1:100, 2577, Cell Signaling) antibodies. For the optimum labeling of LTL by biotin/streptavidin interaction, the Streptavidin/Biotin Blocking Kit (SP-2002, Vector Laboratories) was applied according to the manufacturer's instructions. After washing, the samples were stained for 1 hour at RT with the nuclear dye-SYTOX Blue (1:500. S 11348, Invitrogen) and the corresponding secondary antibodies in ADB such as streptavidin-AF750 (1:500, S21384, Invitrogen), donkey anti-rat IgG-AF594 (1:500, A21209, Invitrogen), donkey anti-goat IgG-AF555 (1:500, A21432, Invitrogen), and donkey anti-rabbit IgG-AF488 (1:500, A21206, Invitrogen) for γH2AX or donkey anti-mouse IgG-AF488 (1:500, A21202, Invitrogen) for p21 antibodies as well as mouse anti-Meisl/⅔ (1:200, sc-101850, SantaCruz) conjugated antibody, and slides were mounted with Vectashield antifade mounting medium (H1000, Vector Laboratories). […]

[2] = SK-124 40 mg/kg oral gavage once daily, or PTH 80 mcg/kg/d IP

Q: Which results are given for “PTH: Human PTH1-34, dissolved in 10 mM acetic acid”?
A: CKD-MBD markers [1, 2]: did not cause these effects; kidney function [1, 2]: did not cause these effects; fibrosis marker gene expression ([1]; whole kidney RT-qPCR, SK-124 40 mg/kg oral, or PTH 80 mcg/kg/d IP): did not cause these effects; patterns of cisplatin-induced injury (human kidney organoids): minimal effects
